Reference: US20250161184A1, “NOVEL USE” (DSM IP Assets B.V., priority 2022, published 2025)
“Also recorded” adds a separate entry of the source.

System: Normal human dermal fibroblasts
Experiment: in vitro dermal fibroblast collagen assay (collagen 1 immunolabeling, flow cytometry)
Format: cell-based
Details: for Collagen 1 expression relative to untreated (%): 72 hours treatment, mean, n = 4, untreated = 100%; for effect on collagen type 1 (result in words): normal human dermal fibroblasts, 72 hours, several concentrations
Experimental: The neutral core human milk oligosaccharides LNT and LNnT were evaluated for their effect on collagen type 1. This was done using an in vitro dermal fibroblast collagen assay. […] For comparative reasons, also another human milk oligosaccharide was tested, i.e. 6′-silalyllactose (6′SL).
Normal human dermal fibroblasts were seeded in cell culture medium (Dulbecco's Modified Eagle Medium supplemented with 10% serum and 1% antibiotics) and allowed to adhere in a humidified cell incubator maintaining 37° C. and 5% CO2. Afterwards, the cells were starved with culture medium without serum for 16-24 hours to synchronize the cells their cell cycle. The starvation medium was removed and cell culture medium+LNT or LNnT respectively 6′SL at various concentrations was added to the cells. The cells were treated for 72 hours. The cells were then fixated and immunolabeled with antibodies specific for collagen 1. These labeled cells were analyzed using flow cytometry and compared to the untreated ones (medium without LNT respectively LNnT or 6′SL).

With `CC(=O)N[C@H]1[C@H](O[C@H]2[C@@H](O)[C@@H](CO)O[C@@H](O[C@H]3[C@H](O)[C@@H](O)C(O)O[C@@H]3CO)[C@@H]2O)O[C@H](CO)[C@@H](O[C@@H]2O[C@H](CO)[C@H](O)[C@H](O)[C@H]2O)[C@@H]1O` (mixture of isomers) [LNnT, lacto-N-neotetraose] the “Collagen 1 expression relative to untreated (%)” value (0.05 μM) was 117%, the “Collagen 1 expression relative to untreated (%)” value (0.10 μM) was 129% and the “Collagen 1 expression relative to untreated (%)” value (1.00 μM) was 167%. The “Collagen 1 expression relative to untreated (%)” value (50 μM) was 172%, the “Collagen 1 expression relative to untreated (%)” value (100 μM) was 177% and the “effect on collagen type 1 (result in words)” value (shortened to “effect”) was “most active in inducing collagen synthesis; also recorded: increase collagen expression”.

In the case of `CC(=O)N[C@H]1[C@H](O[C@H]2[C@@H](O)[C@@H](CO)O[C@@H](O[C@H]3[C@H](O)[C@@H](O)C(O)O[C@@H]3CO)[C@@H]2O)O[C@H](CO)[C@@H](O)[C@@H]1O[C@@H]1O[C@H](CO)[C@H](O)[C@H](O)[C@H]1O` (stereo partly drawn) [LNT, lacto-N-tetraose], the “Collagen 1 expression relative to untreated (%)” value (0.50 μM) is reported as 139%, the “Collagen 1 expression relative to untreated (%)” value (1.00 μM) is reported as 159% and the “Collagen 1 expression relative to untreated (%)” value (50 μM) is reported as 164%. The “Collagen 1 expression relative to untreated (%)” value (100 μM) was 163% and the “effect” value was “increase collagen expression”.

In the case of `CC(=O)N[C@H]1[C@H]([C@H](O)[C@H](O)CO)O[C@@](OC[C@H]2O[C@@H](O[C@H]3[C@H](O)[C@@H](O)[C@H](O)O[C@@H]3CO)[C@H](O)[C@@H](O)[C@H]2O)(C(=O)O)C[C@@H]1O` [6′SL, 6′-silalyllactose, reference compound], the “Collagen 1 expression relative to untreated (%)” value (0.10 μM) is reported as 103%, the “Collagen 1 expression relative to untreated (%)” value (1.00 μM) is reported as 121% and the “Collagen 1 expression relative to untreated (%)” value (50 μM) is reported as 100%. For the same molecule, the “effect” value was “much smaller effect”.
